# Assay results from patent US20230365592A1 (Agios Pharmaceuticals, Inc., priority 2022, published 2023).
# Molecular target: T1, human PAH with the R408W mutation (Homo sapiens, UniProt P00439, R408W)
# T1 construct: expressed in transfected cells
# T1 sequence (P00439 1-452 R408W): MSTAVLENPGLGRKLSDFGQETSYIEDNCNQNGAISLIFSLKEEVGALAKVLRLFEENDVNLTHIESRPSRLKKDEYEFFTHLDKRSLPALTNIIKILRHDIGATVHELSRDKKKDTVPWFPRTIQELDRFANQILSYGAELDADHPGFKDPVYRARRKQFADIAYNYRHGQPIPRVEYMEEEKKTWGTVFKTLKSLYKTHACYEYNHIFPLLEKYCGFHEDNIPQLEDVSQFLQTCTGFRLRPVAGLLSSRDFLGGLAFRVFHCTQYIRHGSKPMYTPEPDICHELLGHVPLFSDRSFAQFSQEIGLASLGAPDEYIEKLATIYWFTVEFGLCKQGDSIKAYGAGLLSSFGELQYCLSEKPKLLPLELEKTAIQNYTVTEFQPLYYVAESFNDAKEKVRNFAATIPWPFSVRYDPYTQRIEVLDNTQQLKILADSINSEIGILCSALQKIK
# Experiment: Cell Based Phenylalanine Flux Assay;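 further: after compound treatment, cells received sepiapterin plus isotope-labelled Phenylalanine for 4 hours, then labelled Tyrosine in the medium was quantified, 10-point 2-fold dilution series run in duplicate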
# Conditions: A375 cells expressing human R408W PAH; 24 hrs compound incubation; 13C-Tyrosine by LC-MS; average where tested multiple times; read-out: AC50
row,Compound,AC50 [nM]
1,"O=C(c1nnc(-c2ccn(C(F)(F)F)n2)o1)N1CCc2[nH]cnc2[C@H]1c1cc2c(OC(F)(F)F)cccn2n1 [Example 1706, (S)-(4-(4-(trifluoromethoxy)pyrazolo[1,5-a]pyridin-2-yl)-6,7-dihydro-1H-imidazo[4,5-c]pyridin-5(4H)-yl)(5-(1-(trifluoromethyl)-1H-pyrazol-3-yl)-1,3,4-oxadiazol-2-yl)methanone]",< 500
2,"O=C(c1nnc(-c2ccn(C(F)(F)F)n2)o1)N1CCc2[nH]cnc2[C@@H]1c1cc2c(OC(F)(F)F)cccn2n1 [Example 1707, (R)-(4-(4-(trifluoromethoxy)pyrazolo[1,5-a]pyridin-2-yl)-6,7-dihydro-1H-imidazo[4,5-c]pyridin-5(4H)-yl)(5-(1-(trifluoromethyl)-1H-pyrazol-3-yl)-1,3,4-oxadiazol-2-yl)methanone]",> 5000
3,"O=C(c1nnc(-c2ccn(C(F)(F)F)n2)o1)N1CCc2[nH]cnc2[C@H]1c1cc2c(OC(F)F)cccn2n1 [Example 1708, (S)-(4-(4-(difluoromethoxy)pyrazolo[1,5-a]pyridin-2-yl)-6,7-dihydro-1H-imidazo[4,5-c]pyridin-5(4H)-yl)(5-(1-(trifluoromethyl)-1H-pyrazol-3-yl)-1,3,4-oxadiazol-2-yl)methanone]",500 to 1000
4,"O=C(c1nnc(-c2ccn(C(F)(F)F)n2)o1)N1CCc2[nH]cnc2[C@@H]1c1cc2c(OC(F)F)cccn2n1 [Example 1709, (R)-(4-(4-(difluoromethoxy)pyrazolo[1,5-a]pyridin-2-yl)-6,7-dihydro-1H-imidazo[4,5-c]pyridin-5(4H)-yl)(5-(1-(trifluoromethyl)-1H-pyrazol-3-yl)-1,3,4-oxadiazol-2-yl)methanone]",> 5000
5,"Cc1cccn2nc([C@H]3c4nc[nH]c4CCN3c3nnc(C(F)F)o3)cc12 [Example 1710, (R)-2-(difluoromethyl)-5-(4-(4-methylpyrazolo[1,5-a]pyridin-2-yl)-6,7-dihydro-1H-imidazo[4,5-c]pyridin-5(4H)-yl)-1,3,4-oxadiazole]",> 5000
6,"Cc1cccn2nc([C@@H]3c4nc[nH]c4CCN3c3nnc(C(F)F)o3)cc12 [Example 1711, (S)-2-(difluoromethyl)-5-(4-(4-methylpyrazolo[1,5-a]pyridin-2-yl)-6,7-dihydro-1H-imidazo[4,5-c]pyridin-5(4H)-yl)-1,3,4-oxadiazole]",500 to 1000
7,"CC(C)(F)c1nnc(C(=O)N2CCc3[nH]cnc3[C@H]2c2cc3c(OC(F)(F)F)cccn3n2)o1 [Example 1726, (S)-(5-(2-fluoropropan-2-yl)-1,3,4-oxadiazol-2-yl)(4-(4-(trifluoromethoxy)pyrazolo[1,5-a]pyridin-2-yl)-6,7-dihydro-1H-imidazo[4,5-c]pyridin-5(4H)-yl)methanone]",500 to 1000
8,"CC(C)(F)c1nnc(C(=O)N2CCc3[nH]cnc3[C@H]2c2cc3c(OC(F)F)cccn3n2)o1 [Example 1728, (S)-(4-(4-(difluoromethoxy)pyrazolo[1,5-a]pyridin-2-yl)-6,7-dihydro-1H-imidazo[4,5-c]pyridin-5(4H)-yl)(5-(2-fluoropropan-2-yl)-1,3,4-oxadiazol-2-yl)methanone]",500 to 1000
9,"CC(C)(F)c1nnc(C(=O)N2CCc3[nH]cnc3[C@@H]2c2cc3c(OC(F)F)cccn3n2)o1 [Example 1729, (R)-(4-(4-(difluoromethoxy)pyrazolo[1,5-a]pyridin-2-yl)-6,7-dihydro-1H-imidazo[4,5-c]pyridin-5(4H)-yl)(5-(2-fluoropropan-2-yl)-1,3,4-oxadiazol-2-yl)methanone]",> 5000
10,"FC(F)c1nnc(N2CCc3[nH]cnc3[C@H]2c2cc3c(C(F)F)cccn3n2)o1 [Example 1733, (S)-2-(difluoromethyl)-5-(4-(4-(difluoromethyl)pyrazolo[1,5-a]pyridin-2-yl)-6,7-dihydro-1H-imidazo[4,5-c]pyridin-5(4H)-yl)-1,3,4-oxadiazole]",< 500
11,"FC(F)c1nnc(N2CCc3[nH]cnc3[C@H]2c2cc3c(C(F)(F)F)cccn3n2)o1 [Example 1735, (S)-2-(difluoromethyl)-5-(4-(4-(trifluoromethyl)pyrazolo[1,5-a]pyridin-2-yl)-6,7-dihydro-1H-imidazo[4,5-c]pyridin-5(4H)-yl)-1,3,4-oxadiazole]",< 500

# Continued, values first:
row,AC50 [nM],Compound
1,< 500,"COc1ccc2c(C(=O)N3CCc4[nH]cnc4[C@H]3c3cc4c(Cl)cccn4n3)cnn2c1 [Example 1698, (S)-(4-(4-chloropyrazolo[1,5-a]pyridin-2-yl)-6,7-dihydro-1H-imidazo[4,5-c]pyridin-5(4H)-yl)(6-methoxypyrazolo[1,5-a]pyridin-3-yl)methanone]"
2,> 5000,"COc1ccc2c(C(=O)N3CCc4[nH]cnc4[C@@H]3c3cc4c(Cl)cccn4n3)cnn2c1 [Example 1699, (R)-(4-(4-chloropyrazolo[1,5-a]pyridin-2-yl)-6,7-dihydro-1H-imidazo[4,5-c]pyridin-5(4H)-yl)(6-methoxypyrazolo[1,5-a]pyridin-3-yl)methanone]"
3,< 500,"Cn1ccc(-c2nnc(C(=O)N3CCc4[nH]cnc4[C@H]3c3cc4c(OC(F)(F)F)cccn4n3)o2)n1 [Example 1702, (S)-(5-(1-methyl-1H-pyrazol-3-yl)-1,3,4-oxadiazol-2-yl)(4-(4-(trifluoromethoxy)pyrazolo[1,5-a]pyridin-2-yl)-6,7-dihydro-1H-imidazo[4,5-c]pyridin-5(4H)-yl)methanone]"
4,< 500,"O=C(c1nnc(-c2ccn(C(F)F)n2)o1)N1CCc2[nH]cnc2[C@H]1c1cc2c(OC(F)(F)F)cccn2n1 [Example 1704, (S)-(5-(1-(difluoromethyl)-1H-pyrazol-3-yl)-1,3,4-oxadiazol-2-yl)(4-(4-(trifluoromethoxy)pyrazolo[1,5-a]pyridin-2-yl)-6,7-dihydro-1H-imidazo[4,5-c]pyridin-5(4H)-yl)methanone]"
5,> 5000,"Cc1ccc2c(C(=O)N3CCc4[nH]cnc4[C@@H]3c3cc4c(C(F)F)cccn4n3)cnn2c1 [Example 1713, (R)-(4-(4-(difluoromethyl)pyrazolo[1,5-a]pyridin-2-yl)-6,7-dihydro-1H-imidazo[4,5-c]pyridin-5(4H)-yl)(6-methylpyrazolo[1,5-a]pyridin-3-yl)methanone]"
6,< 500,"Cc1ccc2c(C(=O)N3CCc4[nH]cnc4[C@H]3c3cc4c(Cl)cccn4n3)cnn2c1 [Example 1714, (S)-(4-(4-chloropyrazolo[1,5-a]pyridin-2-yl)-6,7-dihydro-1H-imidazo[4,5-c]pyridin-5(4H)-yl)(6-methylpyrazolo[1,5-a]pyridin-3-yl)methanone]"
7,< 500,"O=C(c1cnn2cc(C3CC3)ccc12)N1CCc2[nH]cnc2[C@H]1c1cc2c(C(F)(F)F)cccn2n1 [Example 1716, (S)-(6-cyclopropylpyrazolo[1,5-a]pyridin-3-yl)(4-(4-(trifluoromethyl)pyrazolo[1,5-a]pyridin-2-yl)-6,7-dihydro-1H-imidazo[4,5-c]pyridin-5(4H)-yl)methanone]"
8,500 to 1000,"COc1ccc2c(C(=O)N3CCc4[nH]cnc4[C@H]3c3cc4cccc(C)n4n3)cnn2c1 [Example 1718, (S)-(6-methoxypyrazolo[1,5-a]pyridin-3-yl)(4-(7-methylpyrazolo[1,5-a]pyridin-2-yl)-6,7-dihydro-1H-imidazo[4,5-c]pyridin-5(4H)-yl)methanone]"
9,1000 to 5000,"COc1ccc2c(C(=O)N3CCc4[nH]cnc4[C@@H]3c3cc4cccc(C)n4n3)cnn2c1 [Example 1719, (R)-(6-methoxypyrazolo[1,5-a]pyridin-3-yl)(4-(7-methylpyrazolo[1,5-a]pyridin-2-yl)-6,7-dihydro-1H-imidazo[4,5-c]pyridin-5(4H)-yl)methanone]"
10,500 to 1000,"COc1ccc2c(C(=O)N3CCc4[nH]cnc4[C@H]3c3cc4cccc(F)n4n3)cnn2c1 [Example 1720, (S)-(4-(7-fluoropyrazolo[1,5-a]pyridin-2-yl)-6,7-dihydro-1H-imidazo[4,5-c]pyridin-5(4H)-yl)(6-methoxypyrazolo[1,5-a]pyridin-3-yl)methanone]"
11,> 5000,"COc1cccn2nc([C@H]3c4nc[nH]c4CCN3C(=O)c3nnc(-c4ccn(C(F)F)n4)o3)cc12 [Example 1722, (R)-(5-(1-(difluoromethyl)-1H-pyrazol-3-yl)-1,3,4-oxadiazol-2-yl)(4-(4-methoxypyrazolo[1,5-a]pyridin-2-yl)-6,7-dihydro-1H-imidazo[4,5-c]pyridin-5(4H)-yl)methanone]"
12,500 to 1000,"COc1cccn2nc([C@@H]3c4nc[nH]c4CCN3C(=O)c3nnc(-c4ccn(C(F)F)n4)o3)cc12 [Example 1723, (S)-(5-(1-(difluoromethyl)-1H-pyrazol-3-yl)-1,3,4-oxadiazol-2-yl)(4-(4-methoxypyrazolo[1,5-a]pyridin-2-yl)-6,7-dihydro-1H-imidazo[4,5-c]pyridin-5(4H)-yl)methanone]"
13,< 500,"O=C(c1cnn2ccccc12)N1CCc2[nH]cnc2[C@H]1c1cc2c(C(F)F)cccn2n1 [Example 1730, (S)-(4-(4-(difluoromethyl)pyrazolo[1,5-a]pyridin-2-yl)-6,7-dihydro-1H-imidazo[4,5-c]pyridin-5(4H)-yl)(pyrazolo[1,5-a]pyridin-3-yl)methanone]"
14,> 5000,"O=C(c1cnn2ccccc12)N1CCc2[nH]cnc2[C@@H]1c1cc2c(C(F)F)cccn2n1 [Example 1731, (R)-(4-(4-(difluoromethyl)pyrazolo[1,5-a]pyridin-2-yl)-6,7-dihydro-1H-imidazo[4,5-c]pyridin-5(4H)-yl)(pyrazolo[1,5-a]pyridin-3-yl)methanone]"
